Reference: ChEMBL document CHEMBL1147662, “Biarylaniline phenethanolamines as potent and selective beta3 adrenergic receptor agonists” (J Med Chem, 2006)
One block for each compound: values may come before it.

Legend:
[1] = target: T1, Beta-2 adrenergic receptor (Homo sapiens, UniProt P07550)
Description: Activity at human beta-2 adrenergic receptor expressed in CHO cells by stimulation of cAMP production

[2] = Volume of distribution in Beagle dog; assay type: ADME, organism-based, Canis lupus familiaris; conditions: in vivo, read-out: Vss
[3] = Clearance in Beagle dog; assay type: ADME, organism-based, Canis lupus familiaris; conditions: in vivo
[4] = target: T2, Beta-1 adrenergic receptor (Homo sapiens, UniProt P08588)
T2 sequence (P08588 whole entry): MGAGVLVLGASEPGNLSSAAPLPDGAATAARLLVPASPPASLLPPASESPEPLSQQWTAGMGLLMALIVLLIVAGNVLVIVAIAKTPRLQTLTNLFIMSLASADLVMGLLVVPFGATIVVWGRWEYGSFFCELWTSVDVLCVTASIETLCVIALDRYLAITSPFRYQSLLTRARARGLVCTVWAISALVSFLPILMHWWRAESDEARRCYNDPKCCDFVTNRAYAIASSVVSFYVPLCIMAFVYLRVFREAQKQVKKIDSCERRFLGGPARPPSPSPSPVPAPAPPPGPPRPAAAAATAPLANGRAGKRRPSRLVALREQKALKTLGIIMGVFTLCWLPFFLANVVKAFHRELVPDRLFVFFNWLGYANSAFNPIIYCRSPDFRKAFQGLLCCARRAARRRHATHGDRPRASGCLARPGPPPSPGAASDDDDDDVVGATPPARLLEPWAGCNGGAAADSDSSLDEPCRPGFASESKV
Description: Activity at human beta-1 adrenergic receptor expressed in CHO cells by stimulation of cAMP production

[5] = target: Beta-3 adrenergic receptor (Homo sapiens, UniProt P13945)
Beta-3 adrenergic receptor, sequence (P13945 whole entry): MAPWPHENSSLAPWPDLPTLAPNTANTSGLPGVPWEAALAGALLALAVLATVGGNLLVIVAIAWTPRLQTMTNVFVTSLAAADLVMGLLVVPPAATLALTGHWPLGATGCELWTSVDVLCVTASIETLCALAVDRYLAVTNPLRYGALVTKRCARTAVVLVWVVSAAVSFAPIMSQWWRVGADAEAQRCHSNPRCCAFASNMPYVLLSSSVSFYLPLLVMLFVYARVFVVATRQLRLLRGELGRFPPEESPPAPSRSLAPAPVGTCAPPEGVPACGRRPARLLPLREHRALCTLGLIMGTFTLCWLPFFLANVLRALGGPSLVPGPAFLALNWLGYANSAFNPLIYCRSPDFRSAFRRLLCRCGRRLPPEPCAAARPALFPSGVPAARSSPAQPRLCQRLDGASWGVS
Description: Activity at human beta-3 adrenergic receptor expressed in CHO cells by stimulation of cAMP production

[6] = Bioavailability in Beagle dog; assay type: ADME, organism-based, Canis lupus familiaris; conditions: in vivo
[7] = Half life in po dosed Beagle dog; assay type: ADME, organism-based, Canis lupus familiaris; conditions: in vivo
[8] = AUC(0-infinity) in po dosed Beagle dog; assay type: ADME, organism-based, Canis lupus familiaris; parameters: time infinity, route oral; conditions: plasma
[9] = system: Mus musculus; assay: Decrease in plasma insulin level in db/db mouse at 1 mg/kg, po after 14 days; assay type: functional
[10] = system: Mus musculus; assay: Decrease in glycosylated hemoglobin in db/db mouse at 0.1 mg/kg, po after 14 days; assay type: functional; parameters: scale not given: the % may be the effect or the level left
[11] = system: Mus musculus; assay: Decrease in plasma glucose level in db/db mouse at 0.1 mg/kg, po after 14 days; assay type: functional
[12] = system: Mus musculus; assay: Decrease in glycosylated hemoglobin in db/db mouse at 1 mg/kg, po after 14 days; assay type: functional; parameters: scale not given: the % may be the effect or the level left
[13] = system: Mus musculus; assay: Decrease in glycosylated hemoglobin in db/db mouse at 0.01 mg/kg, po after 14 days; assay type: functional; parameters: scale not given: the % may be the effect or the level left
[14] = system: Mus musculus; assay: Decrease in plasma glucose level in db/db mouse at 1 mg/kg, po after 14 days; assay type: functional
[15] = system: Mus musculus; assay: Decrease in plasma insulin level in db/db mouse at 0.01 mg/kg, po after 14 days; assay type: functional
[16] = system: Mus musculus; assay: Decrease in plasma glucose level in db/db mouse at 0.01 mg/kg, po after 14 days; assay type: functional
[17] = system: Mus musculus; assay: Decrease in plasma insulin level in db/db mouse at 0.1 mg/kg, po after 14 days; assay type: functional
[18] = system: Mus musculus; assay: Decrease in glycosylated hemoglobin in db/db mouse at 10 mg/kg, po after 14 days; assay type: functional; parameters: scale not given: the % may be the effect or the level left
[19] = system: Mus musculus; assay: Decrease in plasma insulin level in db/db mouse at 100 mg/kg, po after 14 days; assay type: functional
[20] = system: Mus musculus; assay: Decrease in glycosylated hemoglobin in db/db mouse at 30 mg/kg, po after 14 days; assay type: functional; parameters: scale not given: the % may be the effect or the level left
[21] = target: Beta-2 adrenergic receptor and beta-3 adrenergic receptor (Homo sapiens, UniProt P07550+P13945); assay: Ratio of pEC50 for human beta-3 adrenergic receptor to pKi for human beta2 adrenergic receptor; assay type: functional
[22] = Half life in po dosed cynomolgus monkey; assay type: ADME, organism-based, Macaca fascicularis; conditions: in vivo
[23] = Renal clearance in Beagle dog; assay type: ADME, organism-based, Canis lupus familiaris, Kidney; conditions: in vivo, read-out: CL_renal
[24] = Clearance in cynomolgus monkey; assay type: ADME, organism-based, Macaca fascicularis; conditions: in vivo
[25] = Half life in Beagle dog at 0.2 mg/kg, iv; assay type: ADME, organism-based, Canis lupus familiaris; parameters: dose 0.2 mg/kg, route intravenous; conditions: in vivo
[26] = system: Mus musculus; assay: Increase of thermogenic activity in CD1 mouse at 30 mg/kg; assay type: functional, organism-based; parameters: dose 30 mg/kg
[27] = Half life in Wistar Han rat at 1 mg/kg, po; assay type: ADME, organism-based; parameters: dose 1 mg/kg, route oral; conditions: in vivo
[28] = system: Mus musculus; assay: Decrease in plasma insulin level in db/db mouse at 10 mg/kg, po after 14 days; assay type: functional
[29] = target: T1, Beta-2 adrenergic receptor; assay: Displacement of [125I]cyanopindolol from human cloned beta-2 adrenergic receptor expressed in Sf9 cells
[30] = Volume of distribution in cynomolgus monkey; assay type: ADME, organism-based, Macaca fascicularis; conditions: in vivo, read-out: Vss
[31] = Volume of distribution in Wistar Han rat at 1 mg/kg, iv or 1 mg/kg, po; assay type: ADME, organism-based; conditions: in vivo, read-out: Vss
[32] = Bioavailability in Wistar Han rat at 1 mg/kg, po and 1 mg/kg, iv; assay type: ADME, organism-based; conditions: in vivo
[33] = system: Mus musculus; assay: Decrease in plasma glucose level in db/db mouse at 30 mg/kg, po after 14 days; assay type: functional
[34] = Half life in Wistar Han rat at 1 mg/kg, iv; assay type: ADME, organism-based; parameters: dose 1 mg/kg, route intravenous; conditions: in vivo
[35] = Renal clearance in Wistar Han rat at 1 mg/kg, iv or 1 mg/kg, po; assay type: ADME, organism-based, Kidney; conditions: in vivo, read-out: CL_renal
[36] = system: Mus musculus; assay: Increase of thermogenic activity in CD1 mouse at 3 mg/kg; assay type: functional, organism-based; parameters: dose 3 mg/kg
[37] = system: Mus musculus; assay: Increase of thermogenic activity in CD1 mouse at 10 mg/kg; assay type: functional, organism-based; parameters: dose 10 mg/kg
[38] = system: Mus musculus; assay: Decrease in glycosylated hemoglobin in db/db mouse at 100 mg/kg, po after 14 days; assay type: functional; parameters: scale not given: the % may be the effect or the level left
[39] = target: T2, Beta-1 adrenergic receptor; assay: Displacement of [125I]cyanopindolol from human cloned beta-1 adrenergic receptor expressed in Sf9 cells
[40] = Clearance in Wistar Han rat at 1 mg/kg, iv or 1 mg/kg, po; assay type: ADME, organism-based; conditions: in vivo
[41] = Half life in iv dosed cynomolgus monkey; assay type: ADME, organism-based, Macaca fascicularis; conditions: in vivo
[42] = system: Mus musculus; assay: Decrease in plasma glucose level in db/db mouse at 100 mg/kg, po after 14 days; assay type: functional
[43] = system: Mus musculus; assay: Decrease in plasma glucose level in db/db mouse at 10 mg/kg, po after 14 days; assay type: functional
[44] = system: Mus musculus; assay: Decrease in plasma insulin level in db/db mouse at 30 mg/kg, po after 14 days; assay type: functional
[45] = system: Mus musculus; assay: Decrease in plasma insulin level in db/db mouse at 0.3 mg/kg, po after 14 days; assay type: functional
[46] = system: Mus musculus; assay: Decrease in plasma glucose level in db/db mouse at 0.3 mg/kg, po after 14 days; assay type: functional
[47] = system: Mus musculus; assay: Decrease in glycosylated hemoglobin in db/db mouse at 3 mg/kg, po after 14 days; assay type: functional; parameters: scale not given: the % may be the effect or the level left
[48] = system: Mus musculus; assay: Decrease in plasma insulin level in db/db mouse at 3 mg/kg, po after 14 days; assay type: functional
[49] = system: Mus musculus; assay: Decrease in plasma glucose level in db/db mouse at 0.03 mg/kg, po after 14 days; assay type: functional
[50] = system: Mus musculus; assay: Decrease in plasma glucose level in db/db mouse at 3 mg/kg, po after 14 days; assay type: functional
[51] = system: Mus musculus; assay: Decrease in plasma insulin level in db/db mouse at 0.03 mg/kg, po after 14 days; assay type: functional
[52] = system: Mus musculus; assay: Decrease in glycosylated hemoglobin in db/db mouse at 0.03 mg/kg, po after 14 days; assay type: functional; parameters: scale not given: the % may be the effect or the level left
[53] = system: Mus musculus; assay: Decrease in glycosylated hemoglobin in db/db mouse at 0.3 mg/kg, po after 14 days; assay type: functional; parameters: scale not given: the % may be the effect or the level left

T1 sequence (P07550 whole entry): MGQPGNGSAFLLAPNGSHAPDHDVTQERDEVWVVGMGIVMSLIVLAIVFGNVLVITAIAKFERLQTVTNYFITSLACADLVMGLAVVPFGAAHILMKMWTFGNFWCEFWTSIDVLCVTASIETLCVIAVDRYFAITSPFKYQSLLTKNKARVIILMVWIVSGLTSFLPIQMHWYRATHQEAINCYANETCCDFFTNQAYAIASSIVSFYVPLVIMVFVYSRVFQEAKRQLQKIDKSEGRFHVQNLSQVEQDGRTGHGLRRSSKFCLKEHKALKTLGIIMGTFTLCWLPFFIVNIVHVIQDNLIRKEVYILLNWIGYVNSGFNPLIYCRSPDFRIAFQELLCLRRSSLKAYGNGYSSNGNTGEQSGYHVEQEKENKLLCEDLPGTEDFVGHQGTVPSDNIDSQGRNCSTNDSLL

Compound: C[C@H](CNc1cccc(-c2ccc(C(=O)O)cc2C(=O)O)c1)NC[C@H](O)c1cccc(Cl)c1
EC50 [1]: > 10000 nM | Vd [2]: 0.99 L/kg | clearance [3]: 9.3 mL/min/kg | EC50 [4]: 2510 nM | EC50 [5]: 0.2 nM

Compound: O=C(O)c1cncc(-c2cccc(NCCNC[C@H](O)c3cccc(Cl)c3)c2)c1
EC50 [1]: 3980 nM | EC50 [4]: 3160 nM | EC50 [5]: 63.1 nM

Compound: C[C@H](CNc1cccc(-c2ncccc2C(=O)O)c1)NC[C@H](O)c1cccc(Cl)c1
EC50 [1]: 1580 nM | EC50 [4]: 794 nM | EC50 [5]: 31.6 nM

Compound: O=C(O)c1cccc(-c2cccc(NCCNC[C@H](O)c3cccc(Cl)c3)c2)n1
EC50 [1]: 10000 nM | EC50 [4]: 5010 nM | EC50 [5]: 39.8 nM

Compound: O=C(O)c1ccncc1-c1cccc(NCCNC[C@H](O)c2cccc(Cl)c2)c1
Activity [9]: 1.4 ng/mL | EC50 [1]: > 10000 nM | Activity [10]: 5% | plasma glucose [11]: 181 mg/dL | bioavailability [6]: 27% | Activity [12]: 4.8% | half-life [7]: 1.7 h | Vd [2]: 0.33 L/kg | clearance [3]: 5.64 mL/min/kg | Activity [13]: 5.6% | plasma glucose [14]: 180 mg/dL | Activity [15]: 11.4 ng/mL | EC50 [4]: 10000 nM | AUC(0-inf) [8]: 161 ng·h/mL | plasma glucose [16]: 351 mg/dL | Activity [17]: 2.8 ng/mL | EC50 [5]: 0.1 nM

Compound: C[C@H](CNc1cccc(-c2ccc(C(=O)O)cc2)c1)NC[C@H](O)c1cccc(Cl)c1
EC50 [1]: 1580 nM | EC50 [4]: 794 nM | EC50 [5]: 31.6 nM

The next compounds have a lower EC50 [1] than those just listed; values first:

EC50 [1]: 631 nM | bioavailability [6]: 37% | half-life [7]: 2.4 h | Vd [2]: 1.37 L/kg | clearance [3]: 7.1 mL/min/kg | EC50 [4]: 794 nM | AUC(0-inf) [8]: 173 ng·h/mL | EC50 [5]: 1.58 nM
Compound: Cc1ccc(C(=O)O)cc1-c1cccc(NCCNC[C@H](O)c2cccc(Cl)c2)c1

EC50 [1]: 501 nM | EC50 [4]: 1260 nM | EC50 [5]: 158 nM
Compound: COC(=O)c1cccc(-c2cccc(NCCNC[C@H](O)c3cccc(Cl)c3)c2)c1

EC50 [1]: 1260 nM | Ratio [21]: 398 | half-life [22]: 5.2 h | bioavailability [6]: 43% | CL renal [23]: 0.014 mL/min/kg | clearance [24]: 5.5 mL/min/kg | half-life [25]: 3.3 h | half-life [7]: 5 h | half-life [27]: 3 h | Vd [2]: 0.34 L/kg | Ki [29]: 1580 nM | clearance [3]: 2.4 mL/min/kg | Vd [30]: 0.556 L/kg | Vd [31]: 1.3 L/kg | bioavailability [32]: 30% | EC50 [4]: 3980 nM | AUC(0-inf) [8]: 595 ng·h/mL | half-life [34]: 2.1 h | CL renal [35]: 0.16 mL/min/kg | Ki [39]: 398 nM | clearance [40]: 18.1 mL/min/kg | half-life [41]: 4.5 h | EC50 [5]: 3.98 nM
Compound: O=C(O)c1cccc(-c2cccc(NCCNC[C@H](O)c3cccc(Cl)c3)c2)c1 [SOLABEGRON]
Activity [18]: 7.3% | Activity [19]: 0.9 ng/mL | Activity [20]: 7.6% | Activity [26]: Dose-dependent effect | Activity [28]: 6.3 ng/mL | plasma glucose [33]: 207 mg/dL | Activity [36]: Dose-dependent effect | Activity [37]: Dose-dependent effect | Activity [38]: 7.06% | plasma glucose [42]: 185 mg/dL | plasma glucose [43]: 384 mg/dL | Activity [44]: 4.4 ng/mL

EC50 [1]: 1000 nM | bioavailability [6]: 40% | half-life [7]: 2.4 h | Vd [2]: 0.37 L/kg | clearance [3]: 11.3 mL/min/kg | EC50 [4]: 631 nM | AUC(0-inf) [8]: 310 ng·h/mL | EC50 [5]: 0.251 nM
Compound: C[C@H](CNc1cccc(-c2ccccc2C(=O)O)c1)NC[C@H](O)c1cccc(Cl)c1
Activity [45]: 6.7 ng/mL | plasma glucose [46]: 238 mg/dL | Activity [47]: 5.4% | Activity [48]: 3 ng/mL | plasma glucose [49]: 417 mg/dL | plasma glucose [50]: 222 mg/dL | Activity [51]: 13.7 ng/mL | Activity [52]: 7.2% | Activity [53]: 5.7%

EC50 [1]: 50.1 nM | bioavailability [6]: 28% | half-life [7]: 2.5 h | Vd [2]: 0.45 L/kg | clearance [3]: 7.3 mL/min/kg | EC50 [4]: 6.31 nM | AUC(0-inf) [8]: 135 ng·h/mL | EC50 [5]: 0.1 nM
Compound: C[C@H](CNc1cccc(-c2cccc(C(=O)O)c2)c1)NC[C@H](O)c1cccc(Cl)c1
